The test addresses T1, 5-HT2B receptor (Homo sapiens, UniProt P41595).
T1 construct: host or cells: CHO-K1
Nature of the test: 5-HT2B receptor binding, 3H-LSD ligand displacement assay. The following applies: for inhibition at 1 µM: 1 uM compound; for inhibition at 10 µM: 10 uM compound; for inhibition at 0.001 µM: 0.001 uM compound; for inhibition at 0.01 µM: 0.01 uM compound; for inhibition at 0.1 µM: 0.1 uM compound. The protocol:
5-HT2B receptor binding (performed at Eurofins Panlabs Taiwan, Ltd.) to human receptor protein expressed in CHO-K1 cells was determined in a ligand displacement assay using ^3H-lysergic acid diethylamide (LSD) as radioligand and ketanserine as a standard reference compound. Data is presented as % displacement of radioligand at indicated compound concentrations, see Table 1 and Table 2.

T1 sequence (P41595 whole entry): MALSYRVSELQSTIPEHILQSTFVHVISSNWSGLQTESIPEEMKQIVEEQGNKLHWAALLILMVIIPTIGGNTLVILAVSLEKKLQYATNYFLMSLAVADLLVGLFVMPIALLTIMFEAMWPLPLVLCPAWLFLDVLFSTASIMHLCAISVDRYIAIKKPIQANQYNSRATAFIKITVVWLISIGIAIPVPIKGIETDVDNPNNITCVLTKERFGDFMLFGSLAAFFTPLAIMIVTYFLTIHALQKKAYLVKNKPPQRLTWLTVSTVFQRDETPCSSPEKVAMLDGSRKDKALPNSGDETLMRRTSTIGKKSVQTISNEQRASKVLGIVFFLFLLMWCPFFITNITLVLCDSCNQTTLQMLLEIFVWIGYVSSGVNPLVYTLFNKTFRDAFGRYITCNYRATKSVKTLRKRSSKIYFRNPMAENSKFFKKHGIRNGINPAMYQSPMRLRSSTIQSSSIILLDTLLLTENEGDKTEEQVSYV

Consider `COc1ccc(C2=NN(C(=N)N)CC2)cc1OC` [Example 16, 3-(3,4-Dimethoxyphenyl)-4,5-dihydro-1H-pyrazole-1-carboximidamide, reference compound], for which the inhibition at 1 µM worked out at 6% and the inhibition at 10 µM was 42%.
As for `CCCCCCNC(=N)N1CC(C)C(c2cccc(Cl)c2OC)=N1` (centres unmarked) [Example 80, 3-(3-Chloro-2-methoxyphenyl)-N-hexyl-4-methyl-4,5-dihydro-1H-pyrazole-1-carboximidamide], the inhibition at 0.001 µM was 13%, the inhibition at 0.01 µM is 68% and the inhibition at 0.1 µM turned out to be 97%.
On the same counts, the results for `CC1CN(C(=N)NCC(F)(F)C(F)(F)C(F)(F)F)N=C1c1ccccc1O` (centres unmarked) [Example 93, N-(2,2,3,3,4,4,4-Heptafluorobutyl)-3-(2-hydroxyphenyl)-4-methyl-4,5-dihydro-1H-pyrazole-1-carboximidamide] are 21%, 80% and 98%.
On the same counts, the results for `CC1CN(C(=N)NC2CCCCC2)N=C1c1cccc(Cl)c1O` (centres unmarked) [Example 85, 3-(3-Chloro-2-hydroxyphenyl)-N-cyclohexyl-4-methyl-4,5-dihydro-1H-pyrazole-1-carboximidamide] are 47%, 93% and 101%.
Consider `COc1c(Cl)cccc1C1=NN(C(=N)Nc2ccc(F)cc2)CC1C` (centres unmarked) [Example 108, 3-(3-Chloro-2-methoxyphenyl)-N-(4-fluorophenyl)-4-methyl-4,5-dihydro-1H-pyrazole-1-carboximidamide], for which the inhibition at 0.001 µM stood at 29%, the inhibition at 0.01 µM turned out to be 83% and the inhibition at 0.1 µM came to 101%.
On the same counts, the results for `CC1CN(C(=N)Nc2ccc(Cl)cc2)N=C1c1cccc(Cl)c1O` (centres unmarked) [Example 111, 3-(3-Chloro-2-hydroxyphenyl)-N-(4-chlorophenyl)-4-methyl-4,5-dihydro-1H-pyrazole-1-carboximidamide] are 80%, 99% and 101%.
With `CC1CN(C(=N)N)N=C1c1ccnc2ccccc12` (centres unmarked) [Example 71, 4-Methyl-3-(quinolin-4-yl)-4,5-dihydro-1H-pyrazole-1-carboximidamide], the inhibition at 0.01 µM turned out to be 11%, the inhibition at 0.1 µM is 20% and the inhibition at 1 µM turned out to be 43%.
On to `CC1CC(c2cccc3ccccc23)=NN1C(=N)N` (centres unmarked) [Example 23, 5-methyl-3-(naphthalen-1-yl)-4,5-dihydro-1H-pyrazole-1-carboximidamide], for which the inhibition at 0.1 µM came out at 68% and the inhibition at 1 µM is 97%.
In the case of `CC(C)c1ccccc1C1=NN(C(=N)N)CC1` [Example 8, 3-(2-Isopropylphenyl)-4,5-dihydro-1H-pyrazole-1-carboximidamide], the inhibition at 0.1 µM is 80% and the inhibition at 1 µM was determined as 95%.
On the same counts, the results for `N=C(N)N1CCC(c2ccccc2C(F)(F)F)=N1` [Example 13, 3-(2-(Trifluoromethyl)phenyl)-4,5-dihydro-1H-pyrazole-1-carboximidamide] are 34% and 82%.
On the same counts, the results for `Cc1c(C2=NN(C(=N)N)C(C)C2)sc2ccccc12` (centres unmarked) [Example 29, 5-Methyl-3-(3-methylbenzo[b]thiophen-2-yl)-4,5-dihydro-1H-pyrazole-1-carboximidamide] are 69% and 97%.
Regarding `C[C@H]1CN(C(=N)NCc2ccccc2)N=C1c1cccc(Cl)c1O` (single isomer, unassigned) [Example 77, (S)*—N-Benzyl-3-(3-chloro-2-hydroxyphenyl)-4-methyl-4,5-dihydro-1H-pyrazole-1-carboximidamide], the inhibition at 0.001 µM was found to be 2%, the inhibition at 0.01 µM worked out at 28% and the inhibition at 0.1 µM amounted to 88%.
On the same counts, the results for `COc1c(Cl)cccc1C1=NN(C(=N)NCC(F)(F)C(F)(F)C(F)(F)F)CC1C` (centres unmarked) [Example 106, 3-(3-Chloro-2-methoxyphenyl)-N-(2,2,3,3,4,4,4-heptafluorobutyl)-4-methyl-4,5-dihydro-1H-pyrazole-1-carboximidamide] are 16%, 57% and 93%.
For the compound `CC1CN(C(=N)NCCc2ccccc2)N=C1c1ccccc1O` (centres unmarked) [Example 65, 3-(2-hydroxyphenyl)-4-methyl-N-phenethyl-4,5-dihydro-1H-pyrazole-1-carboximidamide], the inhibition at 0.001 µM came out at 48% and the inhibition at 0.01 µM is 89%.
Consider `COc1c(Cl)cccc1C1=NN(C(=N)Nc2ccccc2)CC1C` (centres unmarked) [Example 88, 3-(3-Chloro-2-methoxyphenyl)-4-methyl-N-phenyl-4,5-dihydro-1H-pyrazole-1-carboximidamide], for which the inhibition at 0.001 µM came to 53%, the inhibition at 0.01 µM amounted to 92% and the inhibition at 0.1 µM came to 97%.
For the compound `COc1cc(CNC(=N)N2CC(C)C(c3ccccc3O)=N2)cc(OC)c1` (centres unmarked) [Example 61, N-(3,5-Dimethoxybenzyl)-3-(2-hydroxyphenyl)-4-methyl-4,5-dihydro-1H-pyrazole-1-carboximidamide], the inhibition at 0.001 µM turned out to be 13% and the inhibition at 0.01 µM was 36%.
With `CCOC(=O)NC(=N)N1CC(C)C(c2cccc(Cl)c2OC(=O)OCC)=N1` (centres unmarked) [Example 118, Ethyl ((3-(3-chloro-2-((ethoxycarbonyl)oxy)phenyl)-4-methyl-4,5-dihydro-1H-pyrazol-1-yl)(imino)methyl)carbamate], the inhibition at 0.01 µM is 0%, the inhibition at 0.1 µM turned out to be 54% and the inhibition at 1 µM is 91%.
Turning to `COc1cccc(Cl)c1C1=NN(C(=N)N)CC1` [Example 33, 3-(2-Chloro-6-methoxyphenyl)-4,5-dihydro-1H-pyrazole-1-carboximidamide], the inhibition at 0.1 µM turned out to be 5% and the inhibition at 1 µM was 37%.
As for `CCCCCCCCCCCCNC(=N)N1CC(C)C(c2cccc(Cl)c2OC)=N1` (centres unmarked) [Example 82, 3-(3-Chloro-2-methoxyphenyl)-N-dodecyl-4-methyl-4,5-dihydro-1H-pyrazole-1-carboximidamide], the inhibition at 0.001 µM turned out to be 0%, the inhibition at 0.01 µM was -4% and the inhibition at 0.1 µM was 51%.
For `CC1CN(C(=N)NCc2ccccc2)N=C1c1ccccc1O` (centres unmarked) [Example 42, N-Benzyl-3-(2-hydroxyphenyl)-4-methyl-4,5-dihydro-1H-pyrazole-1-carboximidamide], the inhibition at 0.001 µM came to 49%, the inhibition at 0.01 µM was 97%, the inhibition at 0.1 µM turned out to be 98% and the inhibition at 1 µM stood at 99%.
Take `CCCCCCCCCCCCNC(=N)N1CC(C)C(c2cccc(Cl)c2O)=N1` (centres unmarked) [Example 83, 3-(3-Chloro-2-hydroxyphenyl)-N-dodecyl-4-methyl-4,5-dihydro-1H-pyrazole-1-carboximidamide]: the inhibition at 0.001 µM came to 3%, the inhibition at 0.01 µM is 23% and the inhibition at 0.1 µM is 82%.
As to `C[C@H]1CN(C(=N)N)N=C1c1ccccc1O` (single isomer, unassigned) [Example 37], the inhibition at 0.01 µM was -1%, the inhibition at 0.1 µM is 35%, the inhibition at 1 µM was 72% and the inhibition at 10 µM was 99%.
Consider `COc1c(Cl)cccc1C1=NN(C(=N)Nc2ccc(C(F)(F)F)cc2)CC1C` (centres unmarked) [Example 112, 3-(3-Chloro-2-methoxyphenyl)-4-methyl-N-(4-(trifluoromethyl)phenyl)-4,5-dihydro-1H-pyrazole-1-carboximidamide], for which the inhibition at 0.001 µM is 1%, the inhibition at 0.01 µM amounted to 77% and the inhibition at 0.1 µM was 97%.
On to `N=C(N)N1CCC(c2coc3ccccc23)=N1` [Example 14, 3-(Benzofuran-3-yl)-4,5-dihydro-1H-pyrazole-1-carboximidamide], for which the inhibition at 0.1 µM came to 40% and the inhibition at 1 µM was determined as 88%.
The like results for `N=C(N)N1CCC(c2ccc3ccccc3c2)=N1` [Example 12, 3-(Naphthalen-2-yl)-4,5-dihydro-1H-pyrazole-1-carboximidamide, reference compound] were, in that order, 18% and 76%.
As for `N=C(N)N1CCC(c2cccc3ccsc23)=N1` [Example 10, 3-(Benzo[b]thiophen-7-yl)-4,5-dihydro-1H-pyrazole-1-carboximidamide], the inhibition at 0.1 µM is 75% and the inhibition at 1 µM was determined as 95%.
With `COc1c(Cl)cccc1C1=NN(C(=N)Nc2ccc(Cl)cc2)CC1C` (centres unmarked) [Example 110, 3-(3-Chloro-2-methoxyphenyl)-N-(4-chlorophenyl)-4-methyl-4,5-dihydro-1H-pyrazole-1-carboximidamide], the inhibition at 0.001 µM came to 41%, the inhibition at 0.01 µM was 83% and the inhibition at 0.1 µM was found to be 97%.
Turning to `CC1CN(C(=N)NCc2ccccc2Cl)N=C1c1ccccc1O` (centres unmarked) [Example 56, N-(2-Chlorobenzyl)-3-(2-hydroxyphenyl)-4-methyl-4,5-dihydro-1H-pyrazole-1-carboximidamide], the inhibition at 0.001 µM was found to be 52% and the inhibition at 0.01 µM stood at 95%.
On to `COc1c(Cl)cccc1C1=NN(C(=N)NC#N)CC1C` (centres unmarked) [Example 90, 3-(3-Chloro-2-methoxyphenyl)-N-cyano-4-methyl-4,5-dihydro-1H-pyrazole-1-carboximidamide], for which the inhibition at 0.001 µM stood at 3%, the inhibition at 0.01 µM was 1% and the inhibition at 0.1 µM is -2%.
As for `CC1CN(C(=N)Nc2ccc(F)cc2)N=C1c1ccccc1O` (centres unmarked) [Example 101, N-(4-Fluorophenyl)-3-(2-hydroxyphenyl)-4-methyl-4,5-dihydro-1H-pyrazole-1-carboximidamide], the inhibition at 0.001 µM amounted to 55%, the inhibition at 0.01 µM is 91% and the inhibition at 0.1 µM turned out to be 102%.

One may read the inhibition as the relative decrease from the control value, in per cent.
